In patent US10087178B2, “Substituted spiropyrido[1,2-a]pyrazine derivative and medicinal use thereof as HIV integrase inhibitor” (priority 2012, dated 2018) one finds EC50 data, which are given here for 20 compounds.

Counter-ions that a name gives are not always drawn.

The first test relates to HIV-1 NL4-3 strain. Description: Evaluation of antiviral activity: acute infection system of MT-4 cell with HIV-1 NL4-3 strain. Conditions: Human immunodeficiency virus 1, NL43, MT4, 120 h, MT-4 cells infected with HIV-1 NL4-3 strain (MOI 0.05), cultured 5 days, Cell Titer-Glo; read-out: antiviral activity (EC50). In kind it is cell-based. Background: In ATP-based viability assays light output follows the ATP content of the culture.
A word on the EC50: it is the concentration giving half of the maximal effect. On to `COC[C@H]1C[C@]2(CN(C)C(=O)c3c(OC(C)=O)c(=O)c(C(=O)NCc4cccc(Cl)c4F)cn32)C1` [Example 37, 7′-(3-chloro-2-fluorobenzylcarbamoyl)-cis-3-(methoxymethyl)-2′-methyl-1′,8′-dioxo-1′,2′,3′,8′-tetrahydrospiro[cyclobutane-1,4′-pyrido[1,2-a]pyrazin]-9′-yl acetate], for which the EC50 was 0.7 nM. The same measure, in the same setting: the same measure for `COC[C@H]1C[C@]2(CN(C)C(=O)c3c(OC(=O)C(C)(C)C)c(=O)c(C(=O)NCc4cccc(Cl)c4F)cn32)C1` [Example S71, 7′-(3-chloro-2-fluorobenzylcarbamoyl)-cis-3-(methoxymethyl)-2′-methyl-1′,8′-dioxo-1′,2′,3′,8′-tetrahydrospiro[cyclobutane-1,4′-pyrido[1,2-a]pyrazin]-9′-yl pivalate]: 1.9 nM; for `CN1C(=O)c2c(O)c(=O)c(C(=O)NCc3cccc(Cl)c3F)cn2C[C@]12C[C@H]2CO` [Example T49, (1R,2R)-N-(3-chloro-2-fluorobenzyl)-9′-hydroxy-2-(hydroxymethyl)-2′-methyl-1′,8′-dioxo-1′,2′,4′,8′-tetrahydrospiro[cyclopropane-1,3′-pyrido[1,2-a]pyrazine]-7′-carboxamide]: 7.2 nM. For the compound `CCN1C[C@]2(C[C@@H](COC)C2)n2cc(C(=O)NCc3cccc(Cl)c3F)c(=O)c(O)c2C1=O` [Example S45, N-(3-chloro-2-fluorobenzyl)-2′-ethyl-9′-hydroxy-trans-3-(methoxymethyl)-1′,8′-dioxo-1′,2′,3′,8′-tetrahydrospiro[cyclobutane-1,4′-pyrido[1,2-a]pyrazine]-7′-carboxamide hydrochloride], the EC50 came to 3.9 nM. For the compound `CO[C@H]1C[C@]2(CN(C)C(=O)c3c(OC(=O)C(C)C)c(=O)c(C(=O)NCc4cccc(Cl)c4F)cn32)C1` [Example S66, 7′-(3-chloro-2-fluorobenzylcarbamoyl)-cis-3-methoxy-2′-methyl-1′,8′-dioxo-1′,2′,3′,8′-tetrahydrospiro[cyclobutane-1,4′-pyrido[1,2-a]pyrazin]-9′-yl isobutyrate], the EC50 was determined as 0.9 nM. Same read-out and setting: to `COC[C@H]1C[C@]2(CN(C)C(=O)c3c([O][Ca][O]c4c5n(cc(C(=O)NCc6cccc(Cl)c6F)c4=O)[C@]4(CN(C)C5=O)C[C@H](COC)C4)c(=O)c(C(=O)NCc4cccc(Cl)c4F)cn32)C1` [Example 30, Monocalcium bis[7′-(3-chloro-2-fluorobenzylcarbamoyl)-cis-3-(methoxymethyl)-2′-methyl-1′,8′-dioxo-1′,2′,3′,8′-tetrahydrospiro[cyclobutane-1,4′-pyrido[1,2-a]pyrazin]-9′-olate]] belongs 1.1 nM. On to `CCN1C[C@@]2(C[C@@H]2C(=O)O)n2cc(C(=O)NCc3ccc(F)cc3F)c(=O)c(O)c2C1=O` [Example T7, (1S,2S)-7′-(2,4-difluorobenzylcarbamoyl)-2′-ethyl-9′-hydroxy-1′,8′-dioxo-1′,2′,3′,8′-tetrahydrospiro[cyclopropane-1,4′-pyrido[1,2-a]pyrazine]-2-carboxylic acid hydrochloride], for which the EC50 is 15 nM. As for `CCN1C[C@@]2(C[C@@H]2C(=O)NC)n2cc(C(=O)NCc3ccc(F)cc3F)c(=O)c(O)c2C1=O` [Example T8, (1S,2S)-N^7′-(2,4-difluorobenzyl)-2′-ethyl-9′-hydroxy-N^2-methyl-1′,8′-dioxo-1′,2′,3′,8′-tetrahydrospiro[cylcopropane-1,4′-pyrido[1,2-a]pyrazine]-2,7′-dicarboxamide hydrochloride], the EC50 stood at 6.1 nM. The same measure, in the same setting: to `COC[C@H]1C[C@@]12CN(C)C(=O)c1c(O)c(=O)c(C(=O)NCc3cccc(Cl)c3F)cn12` [Example T16, (1S.2S)-N-(3-chloro-2-fluorobenzyl)-9′-hydroxy-2-(methoxymethyl)-2′-methyl-1′,8′-dioxo-1′,2′,3′,8′-tetrahydrospiro[cyclopropane-1,4′-pyrido[1,2-a]pyrazine]-7′-carboxamide hydrochloride] belongs 4.2 nM.

With `CC(C)N1C[C@]2(C[C@@H](CO)C2)n2cc(C(=O)NCc3ccc(F)cc3F)c(=O)c(O)c2C1=O` [Example S24, N-(2,4-difluorobenzyl)-9′-hydroxy-trans-3-(hydroxymethyl)-2′-isopropyl-1′,8′-dioxo-1′,2′,3′,8′-tetrahydrospiro[cyclobutane-1,4′-pyrido[1,2-a]pyrazine]-7′-carboxamide hydrobromide], the EC50 is 16 nM.

As to `CO[C@H]1C[C@]2(CN(C)C(=O)c3c(OC(C)=O)c(=O)c(C(=O)NCc4cccc(Cl)c4F)cn32)C1` [Example S64, 7′-(3-chloro-2-fluorobenzylcarbamoyl)-cis-3-methoxy-2′-methyl-1′,8′-dioxo-1′,2′,3′,8′-tetrahydrospiro[cyclobutane-1,4′-pyrido[1,2-a]pyrazin]-9′-yl acetate], the EC50 is 2.8 nM. As to `CCN1C[C@]2(C[C@@H](CO)C2)n2cc(C(=O)NCc3cccc(Cl)c3F)c(=O)c(O)c2C1=O` [Example S44, N-(3-chloro-2-fluorobenzyl)-2′-ethyl-9′-hydroxy-trans-3-(hydroxymethyl)-1′,8′-dioxo-1′,2′,3′,8′-tetrahydrospiro[cyclobutane-1,4′-pyrido[1,2-a]pyrazine]-7′-carboxamide hydrochloride], the EC50 turned out to be 11 nM.

The test is the same for the next values; noted with them: Human immunodeficiency virus 1, NL43, MT4, 120 h, antiviral activity; MT-4 cells infected with HIV-1 NL4-3 (MOI 0.05), 5 days culture, Cell Titer-Glo luminescence; read-out: EC50.
With `CC(C)N1C[C@]2(C[C@H](OCc3ccccc3)C2)n2cc(C(=O)NCc3ccc(F)cc3F)c(=O)c(O)c2C1=O` [Example S2, cis-3-(benzyloxy)-N-(2,4-difluorobenzyl)-9′-hydroxy-2′-isopropyl-1′,8′-dioxo-1′,2′,3′,8′-tetrahydrospiro[cyclobutane-1,4′-pyrido[1,2-a]pyrazine]-7′-carboxamide hydrochloride], the EC50 was 10 nM.

Regarding `CO[C@H]1C[C@@]2(CN(C)C(=O)c3c(O)c(=O)c(C(=O)NCc4ccc(F)cc4F)cn32)C1` [Example S13, N-(2,4-difluorobenzyl)-9′-hydroxy-trans-3-methoxy-2′-methyl-1′,8′-dioxo-1′,2′,3′,8′-tetrahydrospiro[1,2-a]pyrazine]-1,4′-pyrido[1,2-a]pyrazine]-7′-carboxamide hydrochloride], the EC50 was found to be 4.5 nM. Same read-out and setting: the same measure for `CC(C)N1C[C@]2(C[C@@H](OCc3ccccc3)C2)n2cc(C(=O)NCc3ccc(F)cc3F)c(=O)c(O)c2C1=O` [Example S1, trans-3-(benzyloxy)-N-(2,4-difluorobenzyl)-9′-hydroxy-2′-isopropyl-1′,8-dioxo-1′,2′,3′,8′-tetrahydrospiro[cyclobutane-1,4′-pyrido[1,2-a]pyrazine]-7′-carboxamide hydrochloride]: 7.7 nM.

The same test, now with this note: Human immunodeficiency virus 1, NL43, MT4, 120 h, read-out: antiviral activity (EC50), MT-4 cells infected with HIV-1 NL4-3 strain (MOI 0.05), cultured 5 days, Cell Titer-Glo.
For the compound `CCN1C[C@]2(C[C@H]2CO)n2cc(C(=O)NCc3ccc(F)cc3F)c(=O)c(O)c2C1=O` [Example T10, (1R,2R)-N-(2,4-difluorobenzyl)-2′-ethyl-9′-hydroxy-2-(hydroxymethyl)-1′,8′-dioxo-1′,2′,3′,8′-tetrahydrospiro[cyclopropane-1,4′-pyrido[1,2-a]pyrazine]-7′-carboxamide hydrochloride], the EC50 was 16 nM. Same read-out and setting: the same measure for `CN1C[C@@]2(C[C@@H]2CO)n2cc(C(=O)NCc3ccc(F)cc3F)c(=O)c(O)c2C1=O` [Example T4, (1S,2S)-N-(2,4-difluorobenzyl)-9′-hydroxy-2-(hydroxymethyl)-2′-methyl-1′,8′-dioxo-1′,2′,3′,8′-tetrahydrospiro[cyclopropane-1,4′-pyrido[1,2-a]pyrazine]-7′-carboxamide hydrochloride]: 30 nM.

Consider `COC[C@H]1C[C@@]12CN(C)C(=O)c1c(O)c(=O)c(C(=O)NCc3ccc(OC)c(Cl)c3F)cn12` [Example T22, (1S,2S)-N-(3-chloro-2-fluoro-4-methoxybenzyl)-9′-hydroxy-2-(methoxymethyl)-2′-methyl-1′,8′-dioxo-1′,2′,3′,8′-tetrahydrospiro[cyclopropane-1,4′-pyrido[1,2-a]pyrazine]-7′-carboxamide hydrochloride], for which the EC50 came out at 4.9 nM. On the same count and under the same terms, the same measure for `CC(C)N1C[C@@]2(C[C@@H]2CO)n2cc(C(=O)NCc3cccc(Cl)c3F)c(=O)c(O)c2C1=O` [Example T11, (1S,2S)-N-(3-chloro-2-fluorobenzyl)-9′-hydroxy-2-(hydroxymethyl)-2′-isopropyl-1′,8′-dioxo-1′,2′,3′,8′-tetrahydrospiro[cyclopropane-1,4′-pyrido[1,2-a]pyrazine]-7′-carboxamide hydrochloride]: 6 nM; for `CN1C[C@]2(C[C@H]2CO)n2cc(C(=O)NCc3cccc(Cl)c3F)c(=O)c(O)c2C1=O` [Example T23, (1R,2R)-N-(3-chloro-2-fluorobenzyl)-9′-hydroxy-2-(hydroxymethyl)-2′-methyl-1′,8′-dioxo-1′,2′,3′,8′-tetrahydrospiro[cyclopropane-1,4′-pyrido[1,2-a]pyrazine]-7′-carboxamide hydrochloride]: 9.6 nM.
